Measurements as given in publication PMC10132538, “Regulation of the two-pore domain potassium channel, THIK-1 and THIK-2, by G protein coupled receptors” (PLOS ONE, 2023).

How the values were obtained:
M1R = target: T1, M1R (Homo sapiens, UniProt P11229); assay: M1R-induced increase of THIK-1 channel current, whole cell patch clamp in HEK293T cells; type: cell-based; details: BAPTA 5 mM in pipette solution, n = 8
T1 construct: expressed in transfected cells; host or cells: HEK293T
T1 sequence (P11229 1-460): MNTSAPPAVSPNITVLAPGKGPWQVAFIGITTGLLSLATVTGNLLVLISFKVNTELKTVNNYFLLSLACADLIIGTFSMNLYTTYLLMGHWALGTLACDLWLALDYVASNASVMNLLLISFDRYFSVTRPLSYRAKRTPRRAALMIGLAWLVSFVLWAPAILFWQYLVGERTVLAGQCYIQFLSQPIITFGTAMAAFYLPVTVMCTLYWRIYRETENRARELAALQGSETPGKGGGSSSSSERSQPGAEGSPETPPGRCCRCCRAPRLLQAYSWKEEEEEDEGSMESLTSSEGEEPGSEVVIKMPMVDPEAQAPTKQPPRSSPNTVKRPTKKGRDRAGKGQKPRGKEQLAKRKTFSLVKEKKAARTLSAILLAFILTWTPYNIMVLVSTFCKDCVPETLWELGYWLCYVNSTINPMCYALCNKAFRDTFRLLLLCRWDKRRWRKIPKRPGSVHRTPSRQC
Description: (§1) Coding region of mGu2 (M1-P840) was amplified by conventional PCR with designed primers and the resulting product was subcloned into pEYFP-N1 vector at the BglII and EcoRI sites. The cDNAs for mouse THIK-2 channel and dimeric THIK channels were subcloned into pcDNA3.1(-) vector. To increase the surface membrane expression of the THIK-2 channel, 29 residues (Ser2-Ser30) were removed (ΔN-THIK-2). […] Ci-VSP-IRES-GFP vector was kindly gifted by Dr. Y. Okamura (Osaka University, Osaka, Japan). HEK293T cells or CHO-K1 cells were seeded on glasses and transfected with the plasmid DNAs for THIK channels, receptors and a transfection marker of yellow fluorescent protein (YFP). Electrophysiological experiments were performed 24–72 h after the transfection. […] Pertussis toxin (PTX) was purchased from Wako (Osaka, Japan). […] All reagents were dissolved at high concentration and stored at -20 °C as the stock solutions. The stock reagent solution was diluted at concentrations for the electrophysiological experiments. PTX was solved in the culture medium (final concentration, 300 ng/mL) and cells were incubated in it for more than 16 h. U73122 or U73343 (final concentration, 2 μM each) was dissolved in Hanks’ Balanced Salt Solution (HBSS, Invitrogen, Carlsbad, CA, USA) supplemented with 1 mM Ca^2+ and 0.3 mM Mg^2+. Cells were incubated in HBSS with U73122 or U73343 for 10 min at room temperature before the whole cell current recording.
(§2) Composition of bath solution was (in mM) 140 NaCl, 4 KCl, 1 CaCl2, 0.3 MgCl2, 10 HEPES (pH 7.4 adjusted with NaOH). The pipette solution for whole cell patch clamp experiments contained (mM) 130 KCl, 5 Na2-ATP, 3 EGTA, 0.1 CaCl2, 10 HEPES, 4 MgCl2, (pH 7.3 adjusted with KOH). GTP (0.3 mM) was supplemented in the pipette solution. Once the whole cell configuration was established, the cell was held at -80mV and ramp pulses (-120mV to +40mV for 0.4 sec) were applied every 5 sec. Various concentrations of the agonists were applied using a fast perfusion system (VC77SP, Warner Instruments, Hamden, CT, USA). The PKC inhibitor chelerythrine was included in the pipette solution.
(§3) The amplitude of the THIK-1 channel current at 0 mV was measured from every trace induced by the ramp pulse protocol to minimize the fraction of non-selective cationic leak current. The current amplitude before the agonist application was set as the basal current amplitude (I0). The effects of GPCRs on the THIK-1 channel were evaluated as the ratio of the current amplitude after the agonist application to I0 (Iagonist/I0). The EC50 values were estimated by fitting the concentration response curve to a Hill equation (Origin2016; OriginLab, Northampton, MA, USA). […] The effects of A2aR on the Gi/o-R-induced current increase of the THIK-1 channel was estimated as follows. […] All data are shown as means and S.D. The statistical significance between two or more than two groups was estimated by unpaired Student’s t-test or by a one-way analysis of variance (ANOVA) followed by Tukey’s test, respectively. […] Values of p≤ 0.05 were considered as statistically significant (***:p≤0.001, **:0.001<p≤0.01, *:0.01<p≤0.05, n.s.:p>0.05).

[1] = system: endogenously expressed channels in HEK293T cells; assay: Effect of receptor stimulation on the endogenous current in HEK293T cells without THIK-1; type: cell-based; details: HEK293T transfected with GABABR, no THIK-1
Description: The amplitude of the current increase at the 15th trace (ΔI15th) after the application of GABA or oxo-M were normalized to that at the 5th traces (ΔI5th) with or without additional activation of A2aR (ΔI15th/ΔI5th).
The current density at 0 mV (I0) in HEK293T cell transfected with indicated receptors and the effects of the receptor stimulation are shown as Mean and S.D.

[2] = system: intracellular cAMP (Gs signaling, A2aR); assay: Intracellular cAMP, FRET based cAMP indicator in HEK293T cells; type: cell-based; details: NECA 10 μM
Experimental: HEK293T cells were culture on the glass bottom dishes and transfected with cDNAs for FRET based cAMP indicators and A2aR. […] transfection, cells were incubated in bath solution containing (mM) 140 NaCl, 1 CaCl2, 4 KCl, 0.3 MgCl2, 10 HEPES (pH was adjusted to 7.4 with NaOH) and fluorescent signals were acquired as previously described. CFP was excited by 442 nm laser line and emitted light was passed through S470/30 and S535/30 filters (Chroma), respectively. The fluorescence images were then amplified by an image intensifier unit (C8600, Hamamatsu Photonics) and recorded every 5 s using a cooled CCD camera (Qimage Retiga 6000, Roper Scientific). A laser switching controller (Olympus) was operated by using MetaFluor imaging software (Universal Imaging). The fluorescent intensities of CFP and YFP upon the CFP excitation were measured from fluorescent cells and cell free background.
Time dependent changes of the FRET efficiency of the FRET based cAMP indicator (FFRET/FCFP) are shown. Black bars show the application of the reagents, which was carried out by perfusion of the chamber (0.2-0.3 mL bath volume) with bath solution (1 mL) containing the reagent. […] The decrease in FRET were thought to be caused by the activation of the endogenous A2aR (Fig. S2E). Symbols show mean and SD.

THIK-1 channel = assay: Basal current (I0) density of THIK-1 channel at 0 mV in HEK293T cells; type: cell-based; details: 0 mV, before agonist
Description: as §1, §2, §3

[3] = target: T2, M1R-YFP / ΔN-THIK-2 channel (Homo sapiens, UniProt P11229); assay: M1R-YFP-induced increase of ΔN-THIK-2 channel current in CHO-K1 cells; type: cell-based, mouse; details: oxo-M 10 μM
T2 construct: expressed in transfected cells; host or cells: CHO-K1
T2 sequence (P11229 1-460): T1 sequence (P11229 1-460)
Description: as §1, with “Cells were incubated in HBSS with U73122 or U73343 for 10 min at room temperature before the whole cell current recording.” left out

mGlu1 = target: T3, mGlu1 (Homo sapiens, UniProt Q13255); assay: mGlu1-induced increase of THIK-1 channel current, whole cell patch clamp in HEK293T cells; type: cell-based; details: 2 μM for 10 min; glutamate 1 mM
T3 construct: expressed in transfected cells; host or cells: HEK293T
T3 sequence (Q13255 19-1194): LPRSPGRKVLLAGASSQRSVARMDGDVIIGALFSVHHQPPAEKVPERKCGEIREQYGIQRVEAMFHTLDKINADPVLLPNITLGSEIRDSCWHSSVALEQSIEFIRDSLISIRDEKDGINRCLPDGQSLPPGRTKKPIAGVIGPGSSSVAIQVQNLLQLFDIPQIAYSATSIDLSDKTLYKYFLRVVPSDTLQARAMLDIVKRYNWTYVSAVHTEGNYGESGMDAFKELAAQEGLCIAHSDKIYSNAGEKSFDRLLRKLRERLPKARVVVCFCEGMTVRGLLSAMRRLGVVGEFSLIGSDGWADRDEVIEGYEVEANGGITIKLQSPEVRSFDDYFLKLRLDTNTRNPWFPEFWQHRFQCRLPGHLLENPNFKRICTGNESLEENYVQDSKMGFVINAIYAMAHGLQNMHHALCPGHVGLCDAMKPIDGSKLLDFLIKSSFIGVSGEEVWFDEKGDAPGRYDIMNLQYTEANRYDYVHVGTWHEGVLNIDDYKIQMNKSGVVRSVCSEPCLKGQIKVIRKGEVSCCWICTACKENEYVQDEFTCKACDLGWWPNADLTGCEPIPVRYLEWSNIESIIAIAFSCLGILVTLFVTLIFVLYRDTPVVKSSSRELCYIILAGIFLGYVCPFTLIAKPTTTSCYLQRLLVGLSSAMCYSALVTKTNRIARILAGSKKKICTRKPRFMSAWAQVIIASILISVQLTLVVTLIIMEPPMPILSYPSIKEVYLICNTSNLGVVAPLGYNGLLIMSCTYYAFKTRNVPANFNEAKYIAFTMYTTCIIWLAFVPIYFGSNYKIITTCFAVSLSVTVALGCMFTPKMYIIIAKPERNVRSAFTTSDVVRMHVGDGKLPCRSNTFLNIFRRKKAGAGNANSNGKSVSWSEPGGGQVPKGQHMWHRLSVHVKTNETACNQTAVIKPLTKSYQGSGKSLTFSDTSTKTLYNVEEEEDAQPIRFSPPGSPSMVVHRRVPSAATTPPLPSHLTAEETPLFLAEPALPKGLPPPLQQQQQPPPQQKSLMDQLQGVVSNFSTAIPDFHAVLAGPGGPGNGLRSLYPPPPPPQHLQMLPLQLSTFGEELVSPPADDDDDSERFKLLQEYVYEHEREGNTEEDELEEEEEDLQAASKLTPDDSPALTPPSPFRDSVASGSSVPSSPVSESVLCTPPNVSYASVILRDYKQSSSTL
Description: as §1, with “PTX was solved in the culture medium (final concentration, 300 ng/mL) and cells were incubated in it for more than 16 h. U73122 or U73343 (final concentration, 2 μM each) was dissolved in Hanks’ Balanced Salt Solution (HBSS, Invitrogen, Carlsbad, CA, USA) supplemented with 1 mM Ca^2+ and 0.3 mM Mg^2+. Cells were incubated in HBSS with U73122 or U73343 for 10 min at room temperature before the whole cell current recording.” left out
The amplitude of the THIK-1 channel current at 0 mV was measured from every trace induced by the ramp pulse protocol to minimize the fraction of non-selective cationic leak current. […] The effects of GPCRs on the THIK-1 channel were evaluated as the ratio of the current amplitude after the agonist application to I0 (Iagonist/I0). […]

## O=C(O)CN(CC(=O)O)c1ccccc1OCCOc1ccccc1N(CC(=O)O)CC(=O)O [BAPTA]
M1R
  effect of the M1R activation (Iagonist/I0): 3.0 ± 1.0

## NCCCC(=O)O [GABA]
[1]
  Effect of agonist (Iagonist/I0): 1.03 ± 0.06

## CCNC(=O)[C@H]1O[C@@H](n2cnc3c(N)ncnc32)[C@H](O)[C@@H]1O [NECA, 5’-N-ethylcarboxamidoadenosine]
[2]; HEK293T transfected with heterologous A2aR
  Gs signaling (cAMP indicator): fully activated
[2]; HEK293T without heterologous A2aR (endogenous A2aR), effect partial
  intracellular cAMP: increased the intracellular cAMP

## COc1ccc2c(c1)CC[C@@H]1[C@@H]2CC[C@]2(C)[C@@H](NCCCCCCN3C(=O)C=CC3=O)CC[C@@H]12 [U73122]
THIK-1 channel; THIK-1 + M1R, PLC reagent 2 μM 10 min
  Basal current (I0) density of THIK-1 channel: 35.7 ± 34.7 (9)^n.s pA/pF
THIK-1 channel; THIK-1 + M3R, PLC reagent 2 μM 10 min
  Basal current (I0) density of THIK-1 channel: 99.2 ± 117.3 (7)^n.s pA/pF
THIK-1 channel; THIK-1 + mGlu1, PLC reagent 2 μM 10 min
  Basal current (I0) density of THIK-1 channel: 112.2 ± 121.4 (10)^n.s pA/pF
[3]
  effect of M1R-YFP on ΔN-THIK-2 channel after PLC reagent: inhibited
mGlu1
  effect of mGlu1 on THIK-1 current after PLC reagent: inhibited
